Earlier results as cited in patent US20230390221A1, “PHARMACEUTICAL COMPOSITIONS WITH LOW AMOUNTS OF NITROSAMINE IMPURITIES AND METHODS FOR PRODUCING THE SAME” (Zentiva K.S., priority 2020, published 2023).

Settings: limit set by EMA or FDA

CCN(CC)N=O [NDEA, N-nitrosodiethylamine]
acceptable daily limits: 26.5 ng/day

CN(C)N=O [NDMA, N-nitrosodimethylamine]
acceptable daily limits: 96 ng/day
